{"source": "patent US12233077B2", "about": "“Therapeutic treatment of breast cancer based on c-MAF status” (INBIOMOTION S.L., priority 2017, dated 2025)", "key": {"[1]": {"tested_on": "breast cancer patients (AZURE trial)", "assay": "AZURE trial, zoledronic acid treatment effect according to MAF FISH stratification (Example 2)", "assay_type": "in vivo, human", "conditions": "for HR, risk of bone metastasis (anytime), zoledronic acid treatment / HR, bone metastatic event (anytime), zoledronic acid treatment: cutoff 2.5", "text": "The MAF FISH assay was produced by Kreatech for Inbiomotion based on Kreatech proprietary FISH technology. The probe set contains two probes: a MAF 16q23 probe plus a D16Z3 probe as control of chromosome 16 centromeric region. The assay was validated using a 16q23/D16Z3 probe (Inbiomotion) and Poseidon Tissue Digestion Kit from Kreatech. The scoring criteria were defined in a fact sheet and as follows: two FISH evaluable results per patient, and the highest value was selected. The scoring algorithm was as follows: 20 cells counted for target and centromere amplification, if the gene count is >2 and ≤3, then 50 cells were counted.\nAn overview of the AZURE clinical trial (Coleman et al N Eng J Med 2011; 365: 1396-1405 and AZURE Current Controlled Trials number, ISRCTN79831382 and ClinicalTrials.gov identifier NCT00072020) study design, whose patients were used to validate MAF, is provided in FIG. 2. MAF was validated in a retrospective analysis of the AZURE trial using patient tumor sample prospectively collected under regulatory compliant conditions. Out of the 3,360 patients recruited, 1,769 donated tumor tissue (52.4%). There were 13 TMAs (tissue micro array) (150 patient samples each) (1,769 patients). There were 4 replicas of each TMA using different tissue cores (6,326 (4× patient)). One TMA had only 1 replica and two TMAs had three replicas. Based on the H&E analysis (hematoxylin and eosin) (FIG. 3) (6,326): 3,978 cores were evaluable (63%) and 2,348 were nonevaluable.\nFor the FISH assay, there were 2,067 FISH evaluable cores (56%). […] 567 patients were nonevaluable by FISH in any of the 4 replicas (32%).\nWith regard to molecular variables, for FISH analysis: MAF copy number: numerical and categorical (+/−cut-off>=2.5) variable; % of nucleic MAF amplified (MAF CN>2):numberical+categorical (cut-off TBD). For the IHC analysis: IHC H-Score: numerical+categorical (cut-off>=200), IHC OD: numerical+categorical (cut-off tBD). The following clinical variables were analyzed: disease-free survival (DFS), invasive disease-free survival (IDFS), overall survival (OS), first recurrence in bone, bone recurrence at any time, time to first DFS event in bone, time to first DFS event not in bone, response to zoledronic acid treatment.\nIn analyzing the MAF FISH prognostic value, the patients from the control and treatment arms were pooled for the initial analysis. Optimized cut-offs for each variable to be analyzed were used when indicated. Death as a competing event was used in time to bone metastasis, anytime. The following clinical variables were analyzed: time to bone metastasis (anytime), time to bone metastasis (as first event), IDFS (including ipsilateral invasive breast tumor recurrence, regional invasive breast cancer recurrence, metastatic disease-breast cancer, death attributable to any cause, including breast cancer, contralateral invasive breast cancer, second primary non-breast invasive cancer), and overall survival.\nThe control and zoledronic acid treatment arms from the AZURE study described in Example 1 were evaluated to determine the effect of zoledronic acid treatment on MAF-stratified patients."}, "[2]": {"tested_on": "patients with invasive stage II or III breast cancer (AZURE trial)", "assay": "AZURE trial, effect of MAF amplification on treatment outcomes with adjuvant zoledronic acid (Example 3)", "assay_type": "in vivo, human", "text": "3,360 patients from 174 centers worldwide were recruited to the AZURE trial between Sep. 4, 2003, and Feb. 16, 2006. Eligible patients had histologically confirmed invasive stage II or III breast cancer of any subtype, with either pathologically involved axillary lymph node metastasis or a T3 or T4 primary tumor treated with curative intent and complete resection of the primary tumor (or planned resection if patients were being treated with neoadjuvant chemotherapy). Other inclusion criteria were age 18 years or older, Karnofsky performance status score 80 or more, and not being pregnant or breastfeeding. Patients were excluded if they had clinical or imaging evidence of distant metastases, current or recent (<1 year) use of bisphosphonates, or pre-existing bone disease likely to require bone-targeted treatment. All patients gave written informed consent. In the UK, patients also provided voluntary specific consent for use of biological materials (primary tumor and blood samples). Before randomization, patients underwent hematological, renal, hepatic function, and staging imaging tests according to institutional protocols. Those confirmed to be eligible were randomly assigned (1:1) to standard adjuvant systemic treatment alone or with zoledronic acid from a central computer-generated schedule held at the Clinical Trials Research Unit, University of Leeds, Leeds, UK. A minimization process that took into account the number of involved axillary lymph nodes, clinical tumor stage, estrogen receptor status, type and timing of systemic therapy, menopausal status, statin use, and treating center was used.\nPatients received standard systemic therapy with (neo-) adjuvant chemotherapy, endocrine therapy, or both, alone (control group) or with 4 mg zoledronic acid given intravenously every 3-4 weeks for the first six doses, every 3 months for eight doses, and every 6 months for five doses to complete 5 years of treatment (zoledronic acid group). Oral calcium and vitamin D supplements were recommended for all patients in the first 6 months of treatment, and continued thereafter at the discretion of the treating physician. Adjuvant systemic treatments and locoregional radiotherapy were used in accordance with the standard protocols of each participating institution.\nThe follow-up schedule was similar in both study groups, and included clinical assessments, monitoring of adverse events, and hematological, renal, and hepatic function tests. Routine follow-up imaging was not mandated, but investigations were done for clinically suspected recurrence if deemed appropriate by the treating physician. Recurrence was defined by the date on which it was first suspected, to reduce the risk of ascertainment bias. 91% of recurrences were independently validated by either on-site or telephone based monitoring. After treatment with zoledronic acid was completed, patients were followed up annually for disease and safety endpoints.\n5 μm thick slices were cut from each TMA block and oriented to match the TMA map to allow identification of each tissue core. The slices were mounted onto Superfrost plus glass slides (Thermo Fisher Scientific, Waltham, MA, USA) and stained with hematoxylin and eosin to confirm the presence of assessable tumor. MAF amplification was assessed with the validated MAFTEST fluorescence in situ hybridization (FISH) with the MAF/D16Z3 probe (Inbiomotion, Barcelona, Spain). A central laboratory (Targos Molecular Pathology, Kassel, Germany) validated the analytical and diagnostic performance of the assay, established acceptance criteria, included appropriate quality controls for each assay, and performed the analyses masked to treatment assignment. Briefly, TMA sections were rehydrated in ethanol series, washed with water, and pretreated at 98° C. for 15 min. Samples were digested with pepsin in a Poseidon Tissue Digestion Kit (Kreatech, Amsterdam, Netherlands) for 30 min, dehydrated in ethanol series, and dried. […]"}, "[3]": {"conditions": "zoledronic acid group (420 patients), median follow-up 84·6 months"}}}
{"smiles": "O=P(O)(O)C(O)(Cn1ccnc1)P(=O)(O)O", "note": "[zoledronic acid]", "values": [{"measurement": "HR, risk of bone metastasis (anytime), zoledronic acid treatment", "setting": "[1]; MAF FISH not positive patients, death as competing event, p=0.03", "value": 0.65}, {"measurement": "HR, overall survival outcome, zoledronic acid treatment", "setting": "[1]; MAF negative post menopausal patients, 95% CI 0.31-1.01", "value": 0.56}, {"measurement": "HR, DFS outcome, zoledronic acid treatment", "setting": "[1]; MAF negative post menopausal patients, 95% CI 0.33-0.95", "value": 0.56}, {"measurement": "HR, bone metastatic event (anytime), zoledronic acid treatment", "setting": "[1]; MAF non-positive non-post-menopausal patients, p=0.08", "value": 0.66}, {"measurement": "HR, bone metastatic event (anytime), zoledronic acid treatment", "setting": "[1]; MAF non-positive postmenopausal patients, limited number of events", "value": 0.63}, {"measurement": "HR, bone metastatic event (anytime), zoledronic acid treatment", "setting": "[1]; MAF positive non-post-menopausal patients, p=0.045", "value": 2.44}, {"measurement": "HR, risk of bone metastasis (anytime), zoledronic acid treatment", "setting": "[1]; MAF positive patients, death as competing event, non-significant, p=0.22", "value": 1.54}, {"measurement": "HR, bone metastatic event (anytime), zoledronic acid treatment", "setting": "[1]; MAF positive postmenopausal patients, p=0.26, limited number of events", "value": 0.46}, {"measurement": "HR, risk of bone metastasis at any time", "setting": "[1]; zoledronic acid arm, MAF FISH not positive (<2.3) compared to MAF FISH positive, death as competing event, p=0.01", "value": 0.52}, {"measurement": "HR, time to recurrence (invasive disease)", "setting": "[1]; zoledronic acid treatment arm, by MAF FISH status (positive >=2.2), multivariate analysis, p<0.001", "value": 0.52}, {"measurement": "effect on extraskeletal recurrence", "setting": "[2]; MAF-negative tumors, nonpostmenopausal at start of treatment", "value": "No effect"}, {"measurement": "patients who died", "setting": "[2]; MAF-negative tumors, zoledronic acid group (321 patients)", "value": 18, "unit": "%"}, {"measurement": "number of events, invasive-disease-free survival", "setting": "[2]; MAF-negative, non-postmenopausal zoledronic acid group (216 patients)", "value": "216 (61)"}, {"measurement": "number of events, invasive-disease-free survival", "setting": "[2]; MAF-negative, postmenopausal zoledronic acid group (105 patients)", "value": "105 (29)"}, {"measurement": "patients who died", "setting": "[2]; MAF-positive tumors, non-postmenopausal at start of treatment, zoledronic acid group (66 patients)", "value": 36, "unit": "%"}, {"measurement": "patients who died", "setting": "[2]; MAF-positive tumors, postmenopausal, zoledronic acid group (33 patients)", "value": 30, "unit": "%"}, {"measurement": "patients who died", "setting": "[2]; MAF-positive tumors, zoledronic acid group (99 patients)", "value": 34, "unit": "%"}, {"measurement": "number of events, invasive-disease-free survival", "setting": "[2]; MAF-positive, non-postmenopausal zoledronic acid group (66 patients)", "value": "66 (33)"}, {"measurement": "number of events, invasive-disease-free survival", "setting": "[2]; MAF-positive, postmenopausal zoledronic acid group (33 patients)", "value": "33 (12)"}, {"measurement": "patients with an extraskeletal invasive-disease-free survival event", "setting": "[2]; zoledronic acid group", "value": 98}, {"measurement": "patients who had died", "setting": "[2]; [3]", "value": 91}, {"measurement": "patients with a first event in bone", "setting": "[2]; [3]", "value": 21}, {"measurement": "patients with an invasive-disease-free survival event", "setting": "[2]; [3]", "value": 135}, {"measurement": "number of events, invasive-disease-free survival", "setting": "[2]; zoledronic acid group, <50 years, MAF-negative (142 patients)", "value": 41}, {"measurement": "number of events, invasive-disease-free survival", "setting": "[2]; zoledronic acid group, <50 years, MAF-positive (44 patients)", "value": 23}, {"measurement": "number of events, invasive-disease-free survival", "setting": "[2]; zoledronic acid group, ≥50 years, MAF-negative (179 patients)", "value": 49}, {"measurement": "number of events, invasive-disease-free survival", "setting": "[2]; zoledronic acid group, ≥50 years, MAF-positive (55 patients)", "value": 22}]}
